According to US7342100B2, “Hpr6 mutants and uses thereof” (University of Kentucky Research Foundation, priority 2004, dated 2008):

How the values were obtained:
Hpr6 = assay: Induction of Hpr6 expression by drugs, western blot; format: cell-based, human
Description: 1A: western blot analysis showing expression of Hpr6 (top panel) and tubulin (bottom panel) in the cell lines BT549 (lane 1), MCF-7 (lane 2), HCT-100 (lane 3), MDA-MB-231 (lane 4), MDA-MB-435 (lane 5), and HeLa (lane 6). […] The position of molecular weight markers is indicated to the left. […] MDA-MB-231 cells were untreated (upper panel, lane 1), treated with 0.5 or μM doxorubicin (upper panel, lanes 2 and 3), or 0.25 1 μm camptothecin (upper panel, lane 4) for 3 days, and the expression of Hpr6 was analyzed by western blot.
Drug treatment, viability assays, and immunological analyses. Doxorubicin (Sigma, St. Louis, Mo.) was added to culture media and incubated for five days. Cells were incubated with hydrogen peroxide (Fisher), mechlorethamine (kindly provided by Dr. Robert Orlowski, University of North Carolina at Chapel Hill) or camptothecin (Sigma) for 72 hours. Trypan blue and MTT assays were performed using standard techniques as previously described (Hand et al. Journal of Cellular Biochemistry 2003; 90: 534-47). Western blots of cultured cells and tumors were performed as described previously (Hand et al. Journal of Cellular Biochemistry 2003; 90: 534-47; Yang et al. Tumor Biology 2003; 24: 61-9). The antibodies used were as follows: anti-HA (HAll, BAbCo, Berkeley, Calif.), tubulin (Fisher), and Hpr6 (Meyer et al. Steroids 1998; 63: 111-6). Cells were visualized using a VistaVision inverted microscope attached to a Sony DCS F717 digital camera (VWR, Batavia, Ill.). For immunofluorescence, MCF-7/vector and MCF-7/Hpr6 cells (Hand et al. Journal of Cellular Biochemistry 2003; 90: 534-47) were fixed with 3.7% formaldehyde, permeabilized with 0.1% Triton X-100, blocked with 10% normal goat serum, and incubated with the HAll monoclonal antibody. Cells were then washed, incubated with a FITC-Iabeled anti-mouse secondary antibody (Santa Cruz Biotechnology, Santa Cruz, Calif.), washed, mounted, and visualized using a Zeiss fluorescent microscope.
The effect of the Ad-Hpr6-mut adenovirus in response to chemotherapy was analyzed for two reasons. First, the budding yeast homologue of Hpr6 controls resistance to damaging agents.

[1] = Heme binding of purified Hpr6 proteins by absorbance at 400 nm; conditions: purified protein liberated from GST fusion, triplicate
Experimental: FIG. 2. […] 2A: Purification of GST-Hpr6 (lane 1) and GST-Hpr6-mut (lane 2) fusion proteins. Proteins were purified using glutathione-agarose and analyzed by SDS-PAGE electrophoresis. 2B: Heme binding by Hpr6 (left column) but not Hpr6-mut (right column). Solubilized proteins were analyzed for absorbance at 400 nm, and measurements were performed in triplicate. 2C: western blot analysis of MDA-MB-231 cells infected with 500, 1000, or 2000 pfu/cell of Ad-Hpr6-mut (lanes 1-3) or 2000 pfu/cell of Ad-LacZ (lane 4). Hpr6 expression was visualized with an antibody to the HA epitope tag. D. The Hpr6-mut protein is overexpressed compared to endogenous Hpr6 following Ad-Hpr6-mut infection. MDA-MB 231 cells were infected with Ad-LacZ (lane 1) or Ad-Hpr6-mut (lane 2) and analyzed by western blots probed for HA (top panel), Hpr6 (middle panel), or tubulin (bottom panel). The positions of the exogenous Hpr6-mut and endogenous Hpr6 protein are indicated in the center panel (top and bottom, respectively).
Fusion protein plasmids, preparation, and analysis. Hpr6-GST fusion proteins contained amino acids 43-195 of the Hpr6 open reading frame. […]
Hpr6 binds to heme, and the D120G mutation in the heme-1 domain blocks heme-binding activity. […] The measurement was performed in triplicate, and the difference between Hpr6 and Hpr6-D120G absorbance was statistically significant (P=0.03). […]

Compound	induction of Hpr6 expression (Hpr6; MCF-7 cells, data not shown)	induction of Hpr6 expression (Hpr6; MDA-MB-231 cells, western blot)	heme binding (absorbance at 400 nm) [1]
CC[C@@]1(O)C(=O)OCc2c1cc1n(c2=O)Cc2cc3ccccc3nc2-1 [camptothecin]	induced	induced	–
N.N.[Cl][Pt][Cl] [cisplatinum]	–	not induced	–
COc1cccc2c1C(=O)c1c(O)c3c(c(O)c1C2=O)C[C@@](O)(C(=O)CO)C[C@@H]3O[C@H]1C[C@H](N)[C@H](O)[C@H](C)O1 [doxorubicin]	induced	induced	–
OO [hydrogen peroxide]	–	not induced	–
Hpr6-D120G: mutant Hpr6 polypeptide, SEQ ID NO:1, aspartic acid 120 in heme binding region mutated to glycine; inactive form	–	–	absent
Hpr6: wild-type human heme-1 domain protein Hpr6	–	–	bound efficiently to heme
